From patent US7816406B2, “Quinolone analogs” (Cylene Pharmaceuticals, Inc., priority 2004, dated 2010)

Key:
Assay type in all cases: cell-based
HCT-116 = test: TumorCell MeanTimeSurvival (Alamar Blue Stain), HCT-116; settings: Homo sapiens
PC3 = test: TumorCell MeanTimeSurvival (Alamar Blue Stain), PC3; settings: Homo sapiens, PC-3
Hela = test: TumorCell MeanTimeSurvival (Alamar Blue Stain), Hela; settings: Homo sapiens
MiaPaca = test: MTS cell proliferation assay, MiaPaca; settings: Homo sapiens, MIA PaCa-2, M CELL MiaPaca, Table 1C
Procedure: MTS assays. Antiproliferative effects of anticancer drugs are tested by the CellTiter 96 AQueous assay (Promega, WI), which is a colorimetric assay for determining the number of viable cells. (See, e.g., Wang, L., et al., Methods Cell Sci (1996) 18:249-255). Generally, cells (2,000 to 5,000 cells/well) are seeded on 96 well flat bottom plates (Corning, NY) in 100 μl of culture medium without any anticancer drug on day 0, and the culture medium is exchanged for that contained anticancer drugs at various concentrations on day 1. After incubation for 3 days under normal growth conditions (on day 4), the monolayers are washed once in PBS, and the medium is switched to 100 μl of PBS in each of the 96 well plate. After mixing MTS and PMS at the ratio of 20:1, 20 μl of MTS/PMS solution is added to each of the 96 well plate and incubated for 4 hours in a humidified atmosphere of 5% CO2 at 37° C. The absorbance is read at 490 nm using FLUOstar Galaxy 96 well plate reader (BMG Labtechnologies, Germany).

| IC50 (MiaPaca) | Structure (SMILES) | IC50 (HCT-116) | IC50 (PC3) | IC50 (Hela) |
| --- | --- | --- | --- | --- |
| 10 nM | CN1CCCC1CCNC(=O)c1c(=O)c2ccc(N3CCNCC3)nc2n2c1sc1ccccc12 (stereo not drawn) [drawing 358] |  |  |  |
| 2300 nM | O=C(NCCN1CCCC1)c1c(=O)c2c(N3CCCC3)ccnc2n2c1sc1ccccc12 [drawing 145] |  |  |  |
| 110 nM | CC(C)Nc1ncc2c(=O)c(C(=O)NCCN3CCCC3)c3sc4ccccc4n3c2n1 [drawing 330] |  |  |  |

More lines, now with the values behind:

| Structure (SMILES) | IC50 (MiaPaca) | IC50 (HCT-116) | IC50 (PC3) | IC50 (Hela) |
| --- | --- | --- | --- | --- |
| O=C(NCCN1CCCC1)c1c(=O)c2cc(F)c(SCCc3cnccn3)cc2n2c1sc1ccccc12 [drawing 472] |  | 570 nM | 520 nM | 2700 nM |
| CN1CCCC1CCNC(=O)c1c(=O)c2cc(F)c(SCCc3cnccn3)cc2n2c1sc1ccccc12 (stereo not drawn) [drawing 471] |  | 1100 nM | 2700 nM | 2800 nM |
